Measurements reported in patent publication US12472448B2, “Compact hydroxamate-based affinity tags for artificially tagging biological macromolecules” (The Board of Trustees of the Leland Stanford Junior …, priority 2019, dated 2025).

How the values were obtained:
[1] = N-tagging of Alexa-350 ADNGK peptide with orthogonal affinity tags, reverse phase HPLC; conditions: 5 mM of each N-tag, 4 hours at 37° C., pH 7.5
Experimental: A peptide with the sequence ADNGK (SEQ ID NO: 1) was purchased with its N-terminal Fmoc protecting group still in place. This peptide was reacted with NHS-activated fluorophore Alexa-350 (ThermoFisher, A10168) before the Fmoc group was removed using piperidine and the peptide was purified by preparative HPLC.
We treated this peptide with the N-tags form examples 7 and 10, either separately or in combination. This labeling done for 4 hours at 37° C. with 5 mM of each N-tag, 100 mM of sodium phosphate buffered to pH 7.5 and 10% acetonitrile. The resulting species were analyzed by reverse phase HPLC (see, e.g., FIG. 14).

[2] = system: modified RNase H containing a single cysteine; assay: Chemical anchoring of crosslinker to protein cysteine, Ellman's assay; type: biochemical; conditions: 10 ul crosslinker, 1 hour at 37° C., pH 8.6
Experimental: A modified RNase H containing a single cysteine was expressed in E. coli and purified and purified by Ni-IMAC and heparin chromatography.
To 2.75 mg of this protein in 20 ml of 100-mM bicine, 1-mM TCEP, 600-mM NaCl, 100-mM KCl, pH 8.6 was added either 0 or 10 ul of isoazipropyl chloride. These mixtures were incubated for 1 hour at 37° C. The proteins were repurified by heparin chromatography to remove TCEP and isoazipropyl chloride, and the number of free cysteines per protein was determined using Ellman's assay.

[3] = system: modified RNase H containing a single cysteine; assay: In vitro intraprotein photo-crosslinking, denaturing SDS-PAGE; type: biochemical; conditions: mercury arc lamp, 310-370 nm
Excerpt: A modified RNase H containing a single cysteine was expressed, purified, alkylated with isoazipropyl chloride and repurified as above.
The alkylated protein was illuminated with a mercury arc lamp through filters selecting for light in the 310-370-nm range.

GFP = type: cell-based, S. cerevisiae; conditions: 365-nm diode, 1 minute
Experimental: S. cervisae was made to express GFP containing isoazipropyl chloride or isoazibutyl chloride as described above. These cells were illuminated by a 365-nm diode (a Prizmatix Mic-LED-365 powered by a BLCC-02 at 0.5 ampere) for 1 minute and then cryogenically ground. Their protein was run on a denaturing SDS-PAGE gel to look for higher-molecular weight species resulting from crosslinking between the two GFP monomers (see e.g., FIG. 41).

GST = GST (Schistosoma japonicum, UniProt P08515); assay: Photo-crosslinking of aziethyl glutathione to GST, whole-protein LCMS; type: biochemical; conditions: 1 mM, 7 mg/ml GST, 337-nm light, 30 minutes
Experimental: Aziethyl chloride was anchored to glutathione. 25 mg of glutathione and 5 mg of TCEP were dissolved in 2 ml of methanol, 1 ml of water and 50 ul of TEA. To this were added 41 ul of the aziethyl chloride-alkene mixture synthesized in example 19. The mixture was stirred overnight, lyophilized and resuspended in 2.6 ml of water to make a 30-mM solution. This aziethyl glutathione solution was used without any purification.
7 mg/ml of GST was incubated with 0 or 1 mM of aziethyl glutathione. This mixture was placed beneath 337-nm light source (Laser Science, Inc. VSL-337ND-S) for either 0 or 30 minutes and then subjected to whole-protein LCMS.

GST, sequence (P08515 2-218): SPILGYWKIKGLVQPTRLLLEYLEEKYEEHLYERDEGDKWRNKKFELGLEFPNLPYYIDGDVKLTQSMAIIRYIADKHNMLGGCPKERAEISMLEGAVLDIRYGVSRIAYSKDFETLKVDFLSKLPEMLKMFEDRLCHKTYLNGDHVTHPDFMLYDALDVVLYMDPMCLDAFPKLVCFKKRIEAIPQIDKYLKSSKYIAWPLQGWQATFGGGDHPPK

## O=Cc1cccc(C(=O)NO)n1 [hydroxamate affinity tag]
[1]
  labeling of peptide N-termini: efficiently label the peptides

## CC1(CCl)N=N1 [isoazipropyl chloride]
[2]
  free cysteines per protein: 0.15
  protein's cysteines anchored by the crosslinker: 85%
[3]
  appearance of faster-migrating band (intramolecular crosslink): new faster-migrating band to appear

## C[C@@H]1NC(=O)N[C@@H]1CCCCCC(=O)N(C)Cc1cccc(C=O)n1 [compound 10]
[1]
  labeling of peptide N-termini: efficiently label the peptides

## CC1(CCSC[C@H](N)C(=O)O)N=N1 [Isoazibutyl cysteine, isoazibutyl cysteine]
GFP
  interprotein crosslinking of the proteins: 8%

## CC1(CSC[C@H](N)C(=O)O)N=N1 [Isoazipropyl cysteine, isoazipropyl cysteine]
GFP
  interprotein crosslinking of the proteins: 2%

## allylcysteine [reference compound]
GFP
  interprotein crosslinking of the proteins: lack of similar crosslinking

## NC(=O)CI [iodoacetamide, reference compound]
[3]
  appearance of faster-migrating band (intramolecular crosslink): did not appear

## aziethyl glutathione
GST
  GST molecules shifted as expected from covalent crosslinking: 40%
